The results in this text go back to PMC9138090, “Study on the Neuroprotective, Radical-Scavenging and MAO-B Inhibiting Properties of New Benzimidazole Arylhydrazones as Potential Multi-Target Drugs for the Treatment of Parkinson’s Disease” (Antioxidants, 2022).

The structures appear in SMILES notation. Entries after “also recorded” stand apart in the source; their conditions may differ.

For one assay, the system named is rat brain synaptosomes. The experiment in a line: 6-OHDA-induced neurotoxicity, synaptosomal viability. The assay is classed as cell-based. The settings on record: for protective effect in 6-OHDA model (in words): 10 µM, synaptosomal viability and GSH level. The method, then: Synaptosomes were prepared from brains of adult male Wistar rats. The brains were homogenized in 10 volume of cold buffer 1, containing 5 mM HEPES and 0.32 M sucrose (pH = 7.4). The brain homogenate was centrifuged twice at 1000× g for 5 min at 4 °C. The supernatant was collected and centrifuged 3 times at 10,000× g for 20 min at 4 °C. The pellet was re-suspended in ice-cold buffer 1. The synaptosomes were isolated by using Percoll reagent to prepare the gradient. Synaptosomes were re-suspended and incubated in buffer 2, containing 290 mM NaCl, 0.95 mM MgCl2 × 6H2O, 10 mM KCl, 2.4 mM CaCl2 × H2O, 2.1 mM NaH2PO4, 44 mM HEPES, and 13 mM D-glucose. Incubations were performed in a 5% CO2 + 95% O2 atmosphere. The content of synaptosomal protein was determined according to the method of Lowry et al. using bovine serum albumin as a standard.
Synaptosomal viability was measured by (3-(4,5)-dimethylthiazol-2-yl)-2,5-diphenyl tetrazolium bromide)-test, described by Mungarro-Menchaca et al. The synaptosomes were incubated with the compounds and then treated with (3-(4,5)-dimethylthiazol-2-yl)-2,5-diphenyl tetrazolium bromide) solution (0.5 mg/mL) for 1 h at 37 °C. After incubation they were centrifuged at 15,000× g for 1 min. The formed formazan crystals were dissolved in DMSO (Dimethyl sulfoxide). The extinction was measured spectrophotometrically at λ = 580 nm.
The metabolism and oxidation of dopamine cause reactive oxygen radicals and reactive quinones to be produced, which could lead to neurotoxicity and neurodegeneration. The synaptosomes were incubated with the compounds (10 µM) for 30 min and then 6-hydroxydopamnine (150 mmol/L) was used to induce neurotoxicity. […] After 1 h, they were centrifuged on a microcentrifuge for 1 min at 15,000 rpm. The precipitates were gently mixed with buffer B and glucose and centrifuged for a second time at 15,000 rpm for 1 min. After the second wash, buffer B and glucose were added to the precipitates.
In the presented experiments, an in vitro assessment of the possible antioxidant and neuroprotective effects of the newly synthetized compounds was performed in a model of 6-OHDA induced toxicity in rat brain synaptosomes. 6-OHDA is a neurotoxicant that structurally resembles dopamine and can be used in different in vivo and in vitro models for neurotoxicity. This model resembles the histological, biochemical, and physiological characteristics of neurodegenerative diseases such as Parkinson’s and Alzheimer’s disease. […] However, their uptake into brain synaptosomes is similar among primates and rodents and they are suitable in vitro models for PD. The main mechanism of 6-OHDA toxicity includes induction of oxidative stress. It undergoes auto-oxidation or metabolic degradation to p-quinone and produces hydrogen peroxide, superoxide, and hydroxyl radicals. The process causes lipid peroxidation, protein oxidation, and DNA oxidation and finally results in oxidative stress and mitochondrial dysfunction. Rat brain synaptosomes were pretreated with compounds 3e, 3h, 3i, 3m, melatonin, and rasagiline (10 μM); after that, the samples were subjected to 6-OHDA (150 mmol/L, 1 h). The protective effects were evaluated by measurement of synaptosomal viability (MTT-test) and GSH levels (Figure 3).

The target of assay [1] is T1, human recombinant MAO-B (hMAO-B) enzyme (Homo sapiens, UniProt P27338).
T1 construct: purchased Invitrogen, USA
T1 sequence (P27338 1-520): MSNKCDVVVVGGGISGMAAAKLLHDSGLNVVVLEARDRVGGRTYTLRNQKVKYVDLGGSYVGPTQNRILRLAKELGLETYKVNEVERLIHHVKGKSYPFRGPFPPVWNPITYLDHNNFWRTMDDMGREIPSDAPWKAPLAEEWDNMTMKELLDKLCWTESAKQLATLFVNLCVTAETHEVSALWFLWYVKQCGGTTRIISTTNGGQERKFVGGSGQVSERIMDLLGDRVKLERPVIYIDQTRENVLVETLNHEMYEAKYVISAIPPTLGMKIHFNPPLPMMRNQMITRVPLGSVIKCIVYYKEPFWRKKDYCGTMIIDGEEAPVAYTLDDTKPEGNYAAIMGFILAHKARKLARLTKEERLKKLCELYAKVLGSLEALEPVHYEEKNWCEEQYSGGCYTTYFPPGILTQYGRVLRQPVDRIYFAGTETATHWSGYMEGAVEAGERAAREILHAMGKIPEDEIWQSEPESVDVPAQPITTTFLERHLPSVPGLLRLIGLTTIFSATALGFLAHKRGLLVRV
Briefly: hMAO-B activity, Amplex UltraRed fluorometric method. The assay is classed as biochemical. The following applies: 1 µM. The method, then:
The effects of the test compounds on human recombinant MAO-B (hMAO-B) enzyme were studied by the Amplex UltraRed reagent (Sigma-Aldrich Chemie GmbH) fluorometric method with small modifications. The working solutions of the compounds, reagents, hMAO-B, and reaction buffers were prepared according to the producer’s instructions. The tyramine hydrochloride was used as a substrate. The reaction mixture contained a stock solution of Amplex Red (10 mM in dimethyl sulfoxide), the reaction buffer (0.05 M sodium phosphate) at pH 7.4, and the storage solution of horseradish peroxidase (10 U/mL). There were pure MAO-B working solutions in the reaction buffer and MAO-B working solution containing hydrogen peroxide as controls. The final concentration of the test compounds in the well was 1 μM. The compounds together with hMAO-B were embedded in a 96-well plate (8 wells for each compound), and then the plate was incubated for 30 min (dark, at 37 °C). Thereafter, the reaction was initiated by 50 μL Mix Solution: Amplex®Red reagent, horseradish peroxidase, and tyramine as an enzyme substrate in the reaction buffer. The fluorescence was measured every 30 min at 0, 30, 60, 90, 120, and 150 min), in dark, while shaking the reaction mixture at constant temperature of 37 °C. The fluorimetric measurements were assessed using a Synergy 2 Microplate Reader.
Monoamine oxidase B catalyzes dopamine metabolism and oxidation leading to the formation of reactive oxygen species and reactive quinones, which provoke dopamine neurotoxicity and neurodegeneration. In the next experiments, the compounds showing the best safety profile and the most promising neuroprotective activity (3d, 3e, 3h, 3i, 3m, 3n, 3p) were evaluated for their potential inhibitory activity on hMAOB. Selegiline and rasagiline as potent MAO-B inhibitors were used as standard compounds for comparison.

On to `O=C(CCn1c(=S)n(CCC(=O)NN=Cc2cccc(O)c2O)c2ccccc21)NN=Cc1cccc(O)c1O` [3h, 3,3′-(2-Thioxo-1H-benzo[d]imidazole-1,3(2H)-diyl)bis(N′-(2,3-dihydroxybenzylidene)propanehydrazide)], for which the “increase of synaptosomal viability vs. 6-OHDA treatment” value with rat brain synaptosomes (10 µM pretreatment, 6-OHDA 1 h) amounted to 71%. For the same compound, the “inhibitory effect on hMAOB activity (in words)” value (“inhibitory effect” for short) in assay [1] is “statistically significant MAO-B inhibitory effects; also recorded: most potent with an hMAO-B inhibitory activity similar to selegiline and rasagiline”.
As to `O=C(CCn1c(=S)n(CCC(=O)NN=Cc2ccc(O)cc2O)c2ccccc21)NN=Cc1ccc(O)cc1O` [3i, 3,3′-(2-Thioxo-1H-benzo[d]imidazole-1,3(2H)-diyl)bis(N′-(2,4-dihydroxybenzylidene)propanehydrazide)], in the assay on rat brain synaptosomes, the “protective effect in 6-OHDA model (in words)” value (from here on “protective effect”) is “less pronounced protective effects”. In addition, in assay [1], the “inhibitory effect” value was “statistically significant MAO-B inhibitory effects”.
In the case of `O=C(CCn1c(=S)n(CCC(=O)NN=Cc2ccccc2O)c2ccccc21)NN=Cc1ccccc1O` [3e, 3,3′-(2-Thioxo-1H-benzo[d]imidazole-1,3(2H)-diyl)bis(N′-(2-hydroxybenzylidene)propanehydrazide)], the “protective effect” value in the assay with rat brain synaptosomes is “less pronounced protective effects”. Besides, in assay [1], the “inhibitory effect” value is listed as “statistically significant MAO-B inhibitory effects”.
Consider `COc1ccc(C=NNC(=O)CCn2c(=S)n(CCC(=O)NN=Cc3ccc(OC)cc3O)c3ccccc32)c(O)c1` [3m, 3,3′-(2-Thioxo-1H-benzo[d]imidazole-1,3(2H)-diyl)bis(N′-(2-hydroxy-4-methoxybenzylidene)propanehydrazide)], for which the “protective effect” value with rat brain synaptosomes is recorded as “less pronounced protective effects”. For the same compound, the “inhibitory effect” value in assay [1] is “statistically significant MAO-B inhibitory effects”.
